We go through 16 compounds from ChEMBL document CHEMBL5291721, “A preclinical secondary pharmacology resource illuminates target-adverse drug reaction associations of marketed drugs” (Nat Commun, 2023).

Molecules are shown by their SMILES.

The target of experiment [1] is Sodium-dependent noradrenaline transporter (Homo sapiens, UniProt P23975).
Experiment [2] has as its target cGMP-inhibited 3',5'-cyclic phosphodiesterase 3A (Homo sapiens, UniProt Q14432). Type of experiment: functional.
For experiment [3], the target named is T1, 5-hydroxytryptamine receptor 3A (Homo sapiens, UniProt P46098).
T1 sequence (P46098 whole entry): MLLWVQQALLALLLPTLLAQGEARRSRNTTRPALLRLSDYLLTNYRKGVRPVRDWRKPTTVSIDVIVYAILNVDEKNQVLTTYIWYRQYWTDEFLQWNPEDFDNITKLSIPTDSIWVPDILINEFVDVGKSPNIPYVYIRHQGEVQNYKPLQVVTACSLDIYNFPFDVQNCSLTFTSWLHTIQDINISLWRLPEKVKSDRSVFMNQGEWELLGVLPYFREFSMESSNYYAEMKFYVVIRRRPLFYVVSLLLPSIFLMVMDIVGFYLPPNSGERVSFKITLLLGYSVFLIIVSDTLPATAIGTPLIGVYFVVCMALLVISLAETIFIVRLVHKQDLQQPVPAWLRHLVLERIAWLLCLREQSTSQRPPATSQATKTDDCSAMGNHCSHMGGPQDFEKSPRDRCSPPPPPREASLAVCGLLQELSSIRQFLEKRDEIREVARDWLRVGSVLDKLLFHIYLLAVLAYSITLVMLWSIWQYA
It is filed as functional.

For experiment [4], the target named is T2, Alpha-2A adrenergic receptor (Homo sapiens, UniProt P08913).
T2 sequence (P08913 whole entry): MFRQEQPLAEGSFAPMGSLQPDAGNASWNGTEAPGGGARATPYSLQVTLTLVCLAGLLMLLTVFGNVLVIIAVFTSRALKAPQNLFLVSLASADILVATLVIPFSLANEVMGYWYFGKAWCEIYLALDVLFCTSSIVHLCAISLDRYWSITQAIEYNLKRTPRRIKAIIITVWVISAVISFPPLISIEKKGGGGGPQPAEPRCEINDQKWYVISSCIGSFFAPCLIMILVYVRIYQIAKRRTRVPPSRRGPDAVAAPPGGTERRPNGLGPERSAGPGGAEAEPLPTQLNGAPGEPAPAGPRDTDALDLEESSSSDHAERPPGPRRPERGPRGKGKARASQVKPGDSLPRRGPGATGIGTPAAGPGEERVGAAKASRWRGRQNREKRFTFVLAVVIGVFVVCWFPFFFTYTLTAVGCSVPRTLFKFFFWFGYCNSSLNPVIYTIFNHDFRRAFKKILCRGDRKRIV
Type of experiment: functional, cell-based.

Experiment [5] deals with T3, Prostaglandin G/H synthase 1 (Rattus norvegicus, UniProt Q63921).
T3 sequence (Q63921 whole entry): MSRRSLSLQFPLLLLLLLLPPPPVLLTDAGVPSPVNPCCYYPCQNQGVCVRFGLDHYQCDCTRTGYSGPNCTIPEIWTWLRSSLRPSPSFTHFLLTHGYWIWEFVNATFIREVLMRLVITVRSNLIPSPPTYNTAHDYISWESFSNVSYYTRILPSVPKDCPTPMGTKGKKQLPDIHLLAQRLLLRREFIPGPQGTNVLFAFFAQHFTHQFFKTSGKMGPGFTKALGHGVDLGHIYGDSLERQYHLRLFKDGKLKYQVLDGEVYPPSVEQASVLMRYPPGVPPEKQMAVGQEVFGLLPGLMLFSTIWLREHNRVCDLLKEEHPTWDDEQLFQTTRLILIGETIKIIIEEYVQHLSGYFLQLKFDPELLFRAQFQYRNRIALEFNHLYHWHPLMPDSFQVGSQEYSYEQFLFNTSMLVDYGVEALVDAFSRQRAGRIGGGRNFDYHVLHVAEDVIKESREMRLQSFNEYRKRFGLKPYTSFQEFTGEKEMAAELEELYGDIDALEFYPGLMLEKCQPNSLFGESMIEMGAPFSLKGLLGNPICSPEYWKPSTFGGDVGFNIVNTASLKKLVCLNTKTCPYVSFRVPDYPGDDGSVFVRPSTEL
Type of experiment: functional.

For experiment [6], the target named is T4, Cholecystokinin receptor type A (Homo sapiens, UniProt P32238).
T4 sequence (P32238 whole entry): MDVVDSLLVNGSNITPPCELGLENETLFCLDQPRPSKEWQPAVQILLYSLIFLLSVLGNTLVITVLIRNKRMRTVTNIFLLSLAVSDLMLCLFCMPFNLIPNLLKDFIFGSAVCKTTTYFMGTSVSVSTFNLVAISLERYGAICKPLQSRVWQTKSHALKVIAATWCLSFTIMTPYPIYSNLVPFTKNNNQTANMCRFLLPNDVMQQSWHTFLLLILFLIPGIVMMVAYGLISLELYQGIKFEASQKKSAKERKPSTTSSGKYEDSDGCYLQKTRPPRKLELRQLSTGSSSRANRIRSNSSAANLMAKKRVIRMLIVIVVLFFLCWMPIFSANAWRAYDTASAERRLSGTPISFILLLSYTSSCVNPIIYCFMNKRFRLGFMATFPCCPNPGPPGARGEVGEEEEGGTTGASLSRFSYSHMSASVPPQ

The target in experiment [7] is T5, Muscarinic acetylcholine receptor M2 (Homo sapiens, UniProt P08172).
T5 sequence (P08172 whole entry): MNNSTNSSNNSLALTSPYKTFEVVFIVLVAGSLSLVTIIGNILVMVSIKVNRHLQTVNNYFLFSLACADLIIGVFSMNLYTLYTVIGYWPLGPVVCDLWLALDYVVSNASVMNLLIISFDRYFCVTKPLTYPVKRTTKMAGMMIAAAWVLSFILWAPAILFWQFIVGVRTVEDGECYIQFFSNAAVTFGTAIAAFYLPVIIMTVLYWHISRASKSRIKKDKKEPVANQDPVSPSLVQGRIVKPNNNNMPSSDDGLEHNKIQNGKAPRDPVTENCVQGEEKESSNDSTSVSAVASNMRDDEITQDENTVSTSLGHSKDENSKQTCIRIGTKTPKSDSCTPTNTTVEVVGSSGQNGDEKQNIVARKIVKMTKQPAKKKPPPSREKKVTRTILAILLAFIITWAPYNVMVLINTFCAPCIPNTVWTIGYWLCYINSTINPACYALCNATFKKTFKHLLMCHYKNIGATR
It is filed as functional, cell-based.
Further: assay procedure not described here.

Chain of cGMP-inhibited 3',5'-cyclic phosphodiesterase 3A (Q14432 whole entry): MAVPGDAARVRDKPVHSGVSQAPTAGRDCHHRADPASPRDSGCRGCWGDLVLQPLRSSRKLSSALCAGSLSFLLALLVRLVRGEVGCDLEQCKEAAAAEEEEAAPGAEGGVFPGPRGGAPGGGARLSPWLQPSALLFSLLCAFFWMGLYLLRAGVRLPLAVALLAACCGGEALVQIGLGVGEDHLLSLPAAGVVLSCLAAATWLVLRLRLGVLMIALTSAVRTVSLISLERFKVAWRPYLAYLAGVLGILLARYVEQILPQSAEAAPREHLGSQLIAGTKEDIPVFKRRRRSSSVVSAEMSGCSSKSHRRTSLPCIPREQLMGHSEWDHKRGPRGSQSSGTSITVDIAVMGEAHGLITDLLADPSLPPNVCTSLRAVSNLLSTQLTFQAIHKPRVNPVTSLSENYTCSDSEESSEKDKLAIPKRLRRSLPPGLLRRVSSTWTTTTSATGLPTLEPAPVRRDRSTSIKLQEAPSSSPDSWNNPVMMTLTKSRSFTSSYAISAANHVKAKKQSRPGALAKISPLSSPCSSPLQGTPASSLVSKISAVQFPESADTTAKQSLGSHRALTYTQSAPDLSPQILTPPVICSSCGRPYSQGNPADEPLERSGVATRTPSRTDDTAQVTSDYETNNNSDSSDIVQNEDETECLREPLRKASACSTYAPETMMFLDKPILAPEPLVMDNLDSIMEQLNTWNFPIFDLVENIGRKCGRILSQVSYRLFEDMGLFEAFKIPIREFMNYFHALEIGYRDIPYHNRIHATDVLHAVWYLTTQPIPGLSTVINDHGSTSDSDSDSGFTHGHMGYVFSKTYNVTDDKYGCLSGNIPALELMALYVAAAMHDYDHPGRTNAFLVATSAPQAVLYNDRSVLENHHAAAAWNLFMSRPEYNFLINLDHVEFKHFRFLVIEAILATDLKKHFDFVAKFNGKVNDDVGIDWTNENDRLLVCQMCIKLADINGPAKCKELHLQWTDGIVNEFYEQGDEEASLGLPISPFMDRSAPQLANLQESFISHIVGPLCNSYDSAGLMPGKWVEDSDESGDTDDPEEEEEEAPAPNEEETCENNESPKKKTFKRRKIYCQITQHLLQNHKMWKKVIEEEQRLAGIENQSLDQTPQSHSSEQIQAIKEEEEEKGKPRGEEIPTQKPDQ
Chain of Sodium-dependent noradrenaline transporter (P23975 whole entry): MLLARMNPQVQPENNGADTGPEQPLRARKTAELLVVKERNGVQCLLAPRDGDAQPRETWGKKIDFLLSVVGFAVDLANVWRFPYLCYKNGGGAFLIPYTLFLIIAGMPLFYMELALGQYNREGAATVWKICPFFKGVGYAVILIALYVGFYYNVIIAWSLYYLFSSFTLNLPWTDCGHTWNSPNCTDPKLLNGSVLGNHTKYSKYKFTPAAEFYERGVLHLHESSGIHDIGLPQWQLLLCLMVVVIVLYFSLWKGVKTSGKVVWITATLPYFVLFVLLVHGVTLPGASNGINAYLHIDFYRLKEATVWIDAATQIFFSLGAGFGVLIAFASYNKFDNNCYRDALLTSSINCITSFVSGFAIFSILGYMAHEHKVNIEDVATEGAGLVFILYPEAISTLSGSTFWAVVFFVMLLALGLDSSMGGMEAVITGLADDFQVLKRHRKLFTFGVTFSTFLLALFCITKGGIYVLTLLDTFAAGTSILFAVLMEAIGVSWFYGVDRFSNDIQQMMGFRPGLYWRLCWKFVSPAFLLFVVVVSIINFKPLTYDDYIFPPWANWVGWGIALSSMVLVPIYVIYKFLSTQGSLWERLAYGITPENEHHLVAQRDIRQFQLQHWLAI

By AC50 is commonly meant the concentration giving half of the maximal activity seen. Higher therefore signals activity only at high concentration. Take `O=P1(NCCCl)OCCCN1CCCl` (configuration not stated) [IFOSFAMIDE]: the half-maximal activity concentration (AC50) in experiment [1] is more than 30 µM; in experiment [2], 12 µM; in experiment [3], more than 30 µM; in experiment [4] it was more than 30 µM; in experiment [5], more than 30 µM; in experiment [6] it was more than 30 µM. Further, the AC50 in experiment [7] is more than 30 µM.
In the case of `CCC(C)n1ncn(-c2ccc(N3CCN(c4ccc(OCC5COC(Cn6cncn6)(c6ccc(Cl)cc6Cl)O5)cc4)CC3)cc2)c1=O` (configuration not stated) [ITRACONAZOLE], the AC50 in experiment [1], in experiment [2], in experiment [3], in experiment [4], in experiment [5] and in experiment [6] was more than 30 µM each time. The compound further gave an AC50 in experiment [7] of more than 30 µM.
In the case of `c1ccc([C@H]2CN3CCSC3=N2)cc1` [LEVAMISOLE], the AC50 in experiment [1], in experiment [2], in experiment [3], in experiment [4], in experiment [5] and in experiment [6] was more than 30 µM throughout. The compound further registered an AC50 in experiment [7] of more than 30 µM.
With `C[C@H]1CNCCc2ccc(Cl)cc21` [LORCASERIN], the AC50 in experiment [1] is 14 µM; in experiment [2], more than 30 µM; in experiment [3], more than 30 µM; in experiment [4], 7.2 µM; in experiment [5], more than 30 µM; in experiment [6], more than 30 µM. Moreover, the AC50 in experiment [7] was more than 30 µM.
As to `CN1C(C(=O)Nc2ccccn2)=C(O)c2sc(Cl)cc2S1(=O)=O` [LORNOXICAM], the AC50 was more than 30 µM in experiment [1]; more than 30 µM in experiment [2]; more than 30 µM in experiment [3]; more than 10 µM in experiment [4]; 22 µM in experiment [5]; more than 30 µM in experiment [6]. For the same compound, in experiment [7], the AC50 is more than 10 µM.
Turning to `Cc1cccc(Nc2ccccc2C(=O)O)c1C` [MEFENAMIC ACID], the AC50 in experiment [1] was more than 10 µM; in experiment [2], more than 30 µM; in experiment [3] it was more than 30 µM; in experiment [4], more than 10 µM; in experiment [5], 0.26 µM; in experiment [6], more than 10 µM. In experiment [7], this compound registered an AC50 of more than 10 µM.
Consider `C[C@@H](O)[C@H]1C(=O)N2C(C(=O)O)=C(S[C@@H]3CN[C@H](C(=O)N(C)C)C3)[C@H](C)[C@H]12` [MEROPENEM], for which the concentration at half-maximal activity (AC50) in experiment [1] was more than 300 µM; in experiment [2] it was more than 300 µM; in experiment [3], more than 300 µM; in experiment [4], more than 300 µM; in experiment [5], 33.4 µM; in experiment [6], more than 300 µM. The same compound displayed an AC50 in experiment [7] of more than 300 µM.
Regarding `CNC1Cc2ccccc2N(C)c2ccccc21` (configuration not stated) [METAPRAMINE], the AC50 is 16 µM in experiment [1]; more than 30 µM in experiment [2]; more than 30 µM in experiment [3]; 3.2 µM in experiment [4]; more than 30 µM in experiment [5]; more than 30 µM in experiment [6]. This compound yielded an AC50 in experiment [7] of more than 30 µM.
Take `Clc1ccc(C(c2ccccc2Cl)C(Cl)Cl)cc1` (configuration not stated) [MITOTANE]: the AC50 in experiment [1] is more than 10 µM; in experiment [2] it was more than 30 µM; in experiment [3] it was more than 30 µM; in experiment [4], more than 10 µM; in experiment [5] it was more than 10 µM; in experiment [6], more than 10 µM. Also, in experiment [7], the concentration at half-maximal activity (AC50) was more than 10 µM.
`CC1(C)NC(=O)N(c2ccc([N+](=O)[O-])c(C(F)(F)F)c2)C1=O` [NILUTAMIDE]: the AC50 in experiment [1], in experiment [2], in experiment [3], in experiment [4], in experiment [5] and in experiment [6] was more than 30 µM in each case. In experiment [7], this compound returned an AC50 of more than 30 µM.
`CC[C@H]1[C@@H](O)[C@@H]2[C@H](CC[C@]3(C)[C@@H]([C@H](C)CCC(=O)O)CC[C@@H]23)[C@@]2(C)CC[C@@H](O)C[C@@H]12` [OBETICHOLIC ACID]: the AC50 in experiment [1] is more than 30 µM; in experiment [2], more than 30 µM; in experiment [3], more than 30 µM; in experiment [4] it was 11 µM; in experiment [5], 27 µM; in experiment [6], more than 30 µM. This compound also gave an AC50 in experiment [7] of more than 30 µM.
Take `COc1ccc(CC(C)(C)NC[C@H](O)c2cc(O)cc3c2OCC(=O)N3)cc1` [OLODATEROL]: the AC50 in experiment [1] is more than 30 µM; in experiment [2], more than 30 µM; in experiment [3], more than 30 µM; in experiment [4], 10 µM; in experiment [5], 17.5 µM; in experiment [6] it was more than 30 µM. The concentration at half-maximal activity (AC50) in experiment [7] was more than 30 µM.
As to `c1cnc(N2CCN(Cc3ccc4c(c3)OCO4)CC2)nc1` [PIRIBEDIL], the AC50 in experiment [1] is 18 µM; in experiment [2] it was more than 30 µM; in experiment [3], more than 30 µM; in experiment [4], 0.059 µM; in experiment [5] it was more than 30 µM; in experiment [6], more than 30 µM. Moreover, in experiment [7], the half-maximal activity concentration (AC50) is more than 30 µM.
For `COCCCN1CCC(NC(=O)c2cc(Cl)c(N)c3c2OCC3)CC1` [PRUCALOPRIDE], the AC50 in experiment [1] was more than 30 µM; in experiment [2] it was more than 30 µM; in experiment [3] it was 28 µM; in experiment [4], more than 30 µM; in experiment [5], more than 30 µM; in experiment [6], more than 30 µM. The AC50 in experiment [7] is more than 30 µM.
For `COc1ccccc1OCC(O)CN1CCN(CC(=O)Nc2c(C)cccc2C)CC1` (configuration not stated) [RANOLAZINE], the AC50 in experiment [1] was more than 30 µM; in experiment [2], more than 30 µM; in experiment [3], more than 30 µM; in experiment [4], 7.7 µM; in experiment [5] it was more than 30 µM; in experiment [6], more than 30 µM. Further, the AC50 in experiment [7] was more than 30 µM.
Regarding `CO[C@H]1C[C@@H]2CC[C@@H](C)[C@@](O)(O2)C(=O)C(=O)N2CCCC[C@H]2C(=O)O[C@H]([C@H](C)C[C@@H]2CC[C@@H](O)[C@H](OC)C2)CC(=O)[C@H](C)/C=C(\C)[C@@H](O)[C@@H](OC)C(=O)[C@H](C)C[C@H](C)/C=C/C=C/C=C/1C` [SIROLIMUS], the AC50 is more than 30 µM in experiment [1]; more than 30 µM in experiment [2]; more than 30 µM in experiment [3]; more than 10 µM in experiment [4]; more than 30 µM in experiment [5]; more than 30 µM in experiment [6]. In experiment [7], this compound yielded an AC50 of more than 10 µM.
